According to US20110200992A1, “Biological Compositions, Articles and Methods for Monitoring Sterilization Processes” (priority 2008, published 2011):

Key:
Type in all cases: cell-based
[1] = tested on: spores of Gb stearothermophilus; assay: Fluorescence intensity vs. time of spore suspension with dye, with or without nutrients (Example 1); conditions: Acridine Orange 6.6 μM, ex 485 nm, em 530 nm, 50° C.; for Fluorescence Intensity of Spore Suspension with Dye: no nutrients
Method: Spore suspensions of Gb. stearothermophilus (also known as Bacillus stearothermophilus) were prepared by known methods as described in Example 1 of U.S. Pat. No. 5,418,167 ([…] et al.). Modifications of these methods and alternative methods known to those skilled in the art may also be used for preparing these suspensions. Representative cell-permeant dyes from the following classes: green fluorescent nucleic acid stains, red fluorescent nucleic acid stains, and Acridine Orange were tested with spores of Gb stearothermophilus. Specifically, 100 microliters of the spore suspension described above were combined with 200 microlitres of a 1:5000 dilution of the dye with Sterile Water For Irrigation (Baxter, Deerfield, Ill.) or with nutrients glucose, fructose, and potassium chloride in water (1 mg/ml, 1 mg/ml, and 3.3 mgs/ml, respectively), 0.2 M valine, 0.04 M isoleucine, 0.2 M methionine, 4 mg/ml inosine, and 0.4 M alanine. The fluorescence intensity of each of the resulting suspensions was monitored at an incubation temperature of 50° C., using the following dyes at the concentrations and excitation and emission wavelengths indicated below: SYTO 24: 1.0 μM (micromolar); excitation at 485 nm, emission at 530 nm; Acridine Orange: 6.6 μM; excitation at 485 nm, emission at 530 nm; SYTO 64: 1.0 μM; excitation at 530 nm, emission at 620 nm. The dyes are available from Invitrogen, (Carlsbad, Calif.). Fluorescence was monitored in a Biotek FL600 fluorimeter or Biotek Synergy 4 plate reader (Biotek, Winooski, Vt.).

[2] = tested on: Gb. stearothermophilus spores; assay: Fluorescence with spores after dye medium was exposed to sterilization temperature, autoclaved vs not autoclaved (Example 2); conditions: ex 485/em 530 nm, 50° C.
Method: Dilutions of a Gb. stearothermophilus spore suspension described above were subjected to heat shock treatment at 80° C. for 10 min. The dilutions were prepared using Sterile Water For Irrigation (Baxter, Deerfield, Ill.) and tested at a final population of 1×10^6 and 0 spores. The spore dilutions (100 microlitres) were combined with 200 microlitres of medium, consisting of Acridine Orange and nutrients as described in Example 1, that had been subjected to a 15 min 121° C. (250° F.) vacuum assisted cycle in a AMSCO Scientific SG-120 Eagle/Century Series steam sterilizer (Steris, Mentor Ohio), and each of the resulting mixtures was added to a well of a plate. Un-autoclaved medium was used as a control. […] The experiment was performed with both heat shocked and non-heat shocked spores. A summary of the normalized data is listed below in Tables 2a-2c.

[3] = tested on: Gb. stearothermophilus spores; assay: Fluorescence with live and dead (sterilized) spores, dye and nutrient medium treated with the same sterilizing conditions (Example 3)
Method: A glass vial containing 1 mL of 1×E7 Gb. stearothermophilus spore suspension described above and a glass vial containing 1 mL of medium containing a cell-permeant fluorescent dye as described in Example 1 were placed in a sterilizer and run in a 15 min 121° C. (250° F.) vacuum assisted cycle in a AMSCO Scientific SG-120 Eagle/Century Series steam sterilizer (Steris, Mentor Ohio), and 100 microlitres of the resulting autoclaved spore suspensions and medium were subsequently tested. Un-autoclaved spore suspensions that were subjected to a heat shock treatment at 80° C. for 10 min were tested simultaneously as a control. Spore suspensions (100 microlitres) were combined with 200 microlitres of medium, consisting of Acridine orange dye and nutrients as described in Example 1, that was run through the same steam sterilization cycle as the spores, and each resulting mixture was added to a well of a plate. The plate was subsequently placed in a preheated plate reader (Synergy 4, BioTek, Winooski, Vt.) at 50° C. and incubated for 180 min, during which fluorescence intensity readings using excitation and emission wavelengths of 520 and 580, respectively were taken for at total of 19 readings.

CN(C)c1ccc2cc3ccc(N(C)C)cc3nc2c1 [Acridine Orange]
Fluorescence Intensity of Spore Suspension with Dye ([1]; 0 min): 2005
Fluorescence Intensity of Spore Suspension with Dye ([1]; 10 min): 2665
Fluorescence Intensity of Spore Suspension with Dye ([1]; 20 min): 4069
Fluorescence Intensity of Spore Suspension with Dye ([1]; 30 min): 5655
Fluorescence Intensity of Spore Suspension with Dye ([1]; 40 min): 7091
Fluorescence Intensity of Spore Suspension with Dye and Nutrients ([1]; 0 min): 2687
Fluorescence Intensity of Spore Suspension with Dye and Nutrients ([1]; 10 min): 2777
Fluorescence Intensity of Spore Suspension with Dye and Nutrients ([1]; 20 min): 4241
Fluorescence Intensity of Spore Suspension with Dye and Nutrients ([1]; 30 min): 7842
Fluorescence Intensity of Spore Suspension with Dye and Nutrients ([1]; 40 min): 11708
Fluorescence intensity (normalized) ([2]; Autoclaved (15 min 121° C.) dye + nutrient medium, heat shocked E6 germinating spores, 0 min): 0
Fluorescence intensity (normalized) ([2]; Autoclaved (15 min 121° C.) dye + nutrient medium, heat shocked E6 germinating spores, 30 min): 6211.5
Fluorescence intensity (normalized) ([2]; Autoclaved (15 min 121° C.) dye + nutrient medium, heat shocked E6 germinating spores, 60 min): 8652.5
Fluorescence intensity (normalized) ([2]; Autoclaved (15 min 121° C.) dye + nutrient medium, heat shocked E6 germinating spores, 90 min): 9955.5
Fluorescence intensity (normalized) ([2]; Autoclaved (15 min 121° C.) dye + nutrient medium, heat shocked E6 germinating spores, 120 min): 10376.5
Fluorescence intensity (normalized) ([2]; Autoclaved (15 min 121° C.) dye + nutrient medium, heat shocked E6 germinating spores, 150 min): 10694.25
Fluorescence intensity (normalized) ([2]; Autoclaved (15 min 121° C.) dye + nutrient medium, heat shocked E6 germinating spores, 180 min): 10803
Fluorescence intensity (normalized) ([2]; Autoclaved (15 min 121° C.) dye + nutrient medium, heat shocked, 0 spores, 0 min): 0
Fluorescence intensity (normalized) ([2]; Autoclaved (15 min 121° C.) dye + nutrient medium, heat shocked, 0 spores, 30 min): 522.25
Fluorescence intensity (normalized) ([2]; Autoclaved (15 min 121° C.) dye + nutrient medium, heat shocked, 0 spores, 60 min): 588.75
Fluorescence intensity (normalized) ([2]; Autoclaved (15 min 121° C.) dye + nutrient medium, heat shocked, 0 spores, 90 min): 779.75
Fluorescence intensity (normalized) ([2]; Autoclaved (15 min 121° C.) dye + nutrient medium, heat shocked, 0 spores, 120 min): 870
Fluorescence intensity (normalized) ([2]; Autoclaved (15 min 121° C.) dye + nutrient medium, heat shocked, 0 spores, 150 min): 886.5
Fluorescence intensity (normalized) ([2]; Autoclaved (15 min 121° C.) dye + nutrient medium, heat shocked, 0 spores, 180 min): 960.5
Fluorescence intensity (normalized) ([2]; Autoclaved (15 min 121° C.) dye + nutrient medium, non-heat shocked E6 germinating spores, 0 min): 0
Fluorescence intensity (normalized) ([2]; Autoclaved (15 min 121° C.) dye + nutrient medium, non-heat shocked E6 germinating spores, 14 min): 609
Fluorescence intensity (normalized) ([2]; Autoclaved (15 min 121° C.) dye + nutrient medium, non-heat shocked E6 germinating spores, 30 min): 2599
Fluorescence intensity (normalized) ([2]; Autoclaved (15 min 121° C.) dye + nutrient medium, non-heat shocked E6 germinating spores, 44 min): 4753
Fluorescence intensity (normalized) ([2]; Autoclaved (15 min 121° C.) dye + nutrient medium, non-heat shocked E6 germinating spores, 58 min): 6508
Fluorescence intensity (normalized) ([2]; Autoclaved (15 min 121° C.) dye + nutrient medium, non-heat shocked, 0 spores, 0 min): 0
Fluorescence intensity (normalized) ([2]; Autoclaved (15 min 121° C.) dye + nutrient medium, non-heat shocked, 0 spores, 14 min): −212
Fluorescence intensity (normalized) ([2]; Autoclaved (15 min 121° C.) dye + nutrient medium, non-heat shocked, 0 spores, 30 min): −263
Fluorescence intensity (normalized) ([2]; Autoclaved (15 min 121° C.) dye + nutrient medium, non-heat shocked, 0 spores, 44 min): −278
Fluorescence intensity (normalized) ([2]; Autoclaved (15 min 121° C.) dye + nutrient medium, non-heat shocked, 0 spores, 58 min): −287
Fluorescence intensity (normalized) ([2]; Not autoclaved dye + nutrient medium, heat shocked E6 germinating spores, 0 min): 0
Fluorescence intensity (normalized) ([2]; Not autoclaved dye + nutrient medium, heat shocked E6 germinating spores, 30 min): 11623.75
Fluorescence intensity (normalized) ([2]; Not autoclaved dye + nutrient medium, heat shocked E6 germinating spores, 60 min): 17121.25
Fluorescence intensity (normalized) ([2]; Not autoclaved dye + nutrient medium, heat shocked E6 germinating spores, 90 min): 18928.25
Fluorescence intensity (normalized) ([2]; Not autoclaved dye + nutrient medium, heat shocked E6 germinating spores, 120 min): 19653.75
Fluorescence intensity (normalized) ([2]; Not autoclaved dye + nutrient medium, heat shocked E6 germinating spores, 150 min): 19884.5
Fluorescence intensity (normalized) ([2]; Not autoclaved dye + nutrient medium, heat shocked E6 germinating spores, 180 min): 20008.25
Fluorescence intensity (normalized) ([2]; Not autoclaved dye + nutrient medium, heat shocked, 0 spores, 0 min): 0
Fluorescence intensity (normalized) ([2]; Not autoclaved dye + nutrient medium, heat shocked, 0 spores, 30 min): 813
Fluorescence intensity (normalized) ([2]; Not autoclaved dye + nutrient medium, heat shocked, 0 spores, 60 min): 875.75
Fluorescence intensity (normalized) ([2]; Not autoclaved dye + nutrient medium, heat shocked, 0 spores, 90 min): 996.25
Fluorescence intensity (normalized) ([2]; Not autoclaved dye + nutrient medium, heat shocked, 0 spores, 120 min): 1099
Fluorescence intensity (normalized) ([2]; Not autoclaved dye + nutrient medium, heat shocked, 0 spores, 150 min): 1114.5
Fluorescence intensity (normalized) ([2]; Not autoclaved dye + nutrient medium, heat shocked, 0 spores, 180 min): 990.25
Fluorescence intensity (normalized) ([2]; Not autoclaved dye + nutrient medium, non-heat shocked E6 germinating spores, 0 min): 00
Fluorescence intensity (normalized) ([2]; Not autoclaved dye + nutrient medium, non-heat shocked E6 germinating spores, 14 min): 597
Fluorescence intensity (normalized) ([2]; Not autoclaved dye + nutrient medium, non-heat shocked E6 germinating spores, 30 min): 2878
Fluorescence intensity (normalized) ([2]; Not autoclaved dye + nutrient medium, non-heat shocked E6 germinating spores, 44 min): 5314
Fluorescence intensity (normalized) ([2]; Not autoclaved dye + nutrient medium, non-heat shocked E6 germinating spores, 58 min): 7289
Fluorescence intensity (normalized) ([2]; Not autoclaved dye + nutrient medium, non-heat shocked, 0 spores, 0 min): 0
Fluorescence intensity (normalized) ([2]; Not autoclaved dye + nutrient medium, non-heat shocked, 0 spores, 14 min): −334
Fluorescence intensity (normalized) ([2]; Not autoclaved dye + nutrient medium, non-heat shocked, 0 spores, 30 min): −456
Fluorescence intensity (normalized) ([2]; Not autoclaved dye + nutrient medium, non-heat shocked, 0 spores, 44 min): −484
Fluorescence intensity (normalized) ([2]; Not autoclaved dye + nutrient medium, non-heat shocked, 0 spores, 58 min): −476
Fluorescence intensity (normalized) ([3]; Autoclaved (dead) Spores, E6, ex 520/em 580, 50° C., 0 min): 0
Fluorescence intensity (normalized) ([3]; Autoclaved (dead) Spores, E6, ex 520/em 580, 50° C., 30 min): −1468.25
Fluorescence intensity (normalized) ([3]; Autoclaved (dead) Spores, E6, ex 520/em 580, 50° C., 60 min): −103.5
Fluorescence intensity (normalized) ([3]; Autoclaved (dead) Spores, E6, ex 520/em 580, 50° C., 90 min): −9.25
Fluorescence intensity (normalized) ([3]; Autoclaved (dead) Spores, E6, ex 520/em 580, 50° C., 120 min): −49.25
Fluorescence intensity (normalized) ([3]; Autoclaved (dead) Spores, E6, ex 520/em 580, 50° C., 180 min): −307
Fluorescence intensity (normalized) ([3]; Autoclaved Spores, 0, ex 520/em 580, 50° C., 0 min): 0
Fluorescence intensity (normalized) ([3]; Autoclaved Spores, 0, ex 520/em 580, 50° C., 30 min): 375.25
Fluorescence intensity (normalized) ([3]; Autoclaved Spores, 0, ex 520/em 580, 50° C., 60 min): 1347.25
Fluorescence intensity (normalized) ([3]; Autoclaved Spores, 0, ex 520/em 580, 50° C., 90 min): 1533.75
Fluorescence intensity (normalized) ([3]; Autoclaved Spores, 0, ex 520/em 580, 50° C., 120 min): 1491.25
Fluorescence intensity (normalized) ([3]; Autoclaved Spores, 0, ex 520/em 580, 50° C., 180 min): 1427.75
Fluorescence intensity (normalized) ([3]; Live Spores (heat shocked), E6, autoclaved dye + nutrient medium, ex 520/em 580, 50° C., 0 min): 0
Fluorescence intensity (normalized) ([3]; Live Spores (heat shocked), E6, autoclaved dye + nutrient medium, ex 520/em 580, 50° C., 30 min): 6211.5
Fluorescence intensity (normalized) ([3]; Live Spores (heat shocked), E6, autoclaved dye + nutrient medium, ex 520/em 580, 50° C., 60 min): 8652.5
Fluorescence intensity (normalized) ([3]; Live Spores (heat shocked), E6, autoclaved dye + nutrient medium, ex 520/em 580, 50° C., 90 min): 9955.5
Fluorescence intensity (normalized) ([3]; Live Spores (heat shocked), E6, autoclaved dye + nutrient medium, ex 520/em 580, 50° C., 120 min): 10376.5
Fluorescence intensity (normalized) ([3]; Live Spores (heat shocked), E6, autoclaved dye + nutrient medium, ex 520/em 580, 50° C., 180 min): 10694.25
Fluorescence intensity (normalized) ([3]; Live Spores, 0, autoclaved dye + nutrient medium, ex 520/em 580, 50° C., 0 min): 0
Fluorescence intensity (normalized) ([3]; Live Spores, 0, autoclaved dye + nutrient medium, ex 520/em 580, 50° C., 30 min): 522.25
Fluorescence intensity (normalized) ([3]; Live Spores, 0, autoclaved dye + nutrient medium, ex 520/em 580, 50° C., 60 min): 588.75
Fluorescence intensity (normalized) ([3]; Live Spores, 0, autoclaved dye + nutrient medium, ex 520/em 580, 50° C., 90 min): 779.75
Fluorescence intensity (normalized) ([3]; Live Spores, 0, autoclaved dye + nutrient medium, ex 520/em 580, 50° C., 120 min): 870
Fluorescence intensity (normalized) ([3]; Live Spores, 0, autoclaved dye + nutrient medium, ex 520/em 580, 50° C., 180 min): 886.5
